Test results as given in patent US20260347338A1, “PYRIMIDINE/PYRIDINE DERIVATIVES OR SALTS THEREOF AND PHARMACEUTICAL COMPOSITIONS COMPRISING THE SAME” (YUHAN CORPORATION, priority 2023, published 2026).
Where a name gives a salt, the structure may show the parent alone.

Each compound was assayed against T1, human recombinant HPK1 (Homo sapiens, UniProt Q92918) (assay: Inhibitory activity against human recombinant HPK1 (TR-FRET)). Conditions: ULight-p70S6K peptide, ATP at Km, room temperature, 1 hour, 0.32 to 1000 nM compound.
T1 construct: purchased BPS Bioscience
T1 sequence (Q92918 whole entry): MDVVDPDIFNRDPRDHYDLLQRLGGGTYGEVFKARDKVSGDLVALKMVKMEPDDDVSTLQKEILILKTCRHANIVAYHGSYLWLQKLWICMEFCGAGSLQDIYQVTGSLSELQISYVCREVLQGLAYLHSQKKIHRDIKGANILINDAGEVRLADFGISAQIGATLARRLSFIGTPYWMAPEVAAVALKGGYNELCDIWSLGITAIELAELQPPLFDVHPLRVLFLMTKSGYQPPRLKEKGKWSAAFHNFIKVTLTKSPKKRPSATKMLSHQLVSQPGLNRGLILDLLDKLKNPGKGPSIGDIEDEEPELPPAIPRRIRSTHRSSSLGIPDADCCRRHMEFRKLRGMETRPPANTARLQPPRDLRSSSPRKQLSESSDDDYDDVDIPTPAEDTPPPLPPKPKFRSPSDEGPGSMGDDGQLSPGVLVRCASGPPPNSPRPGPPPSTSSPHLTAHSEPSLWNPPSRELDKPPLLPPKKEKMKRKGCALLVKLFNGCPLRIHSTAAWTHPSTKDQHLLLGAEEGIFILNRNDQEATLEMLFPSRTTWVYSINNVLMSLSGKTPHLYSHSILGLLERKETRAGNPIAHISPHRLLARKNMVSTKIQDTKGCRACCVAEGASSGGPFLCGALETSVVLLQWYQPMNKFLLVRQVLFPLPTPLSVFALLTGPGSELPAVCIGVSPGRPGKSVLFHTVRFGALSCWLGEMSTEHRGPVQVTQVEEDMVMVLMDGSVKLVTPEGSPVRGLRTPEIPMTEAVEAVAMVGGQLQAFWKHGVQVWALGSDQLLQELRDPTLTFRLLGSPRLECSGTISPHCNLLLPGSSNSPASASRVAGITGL
Format: biochemical
Method in brief: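 IC50 classes A–D use 10, 50 and 100 nM cut-offs, derived from TR-FRET signal inhibition relative to DMSO controls. Human recombinant HPK1 phosphorylated ULight-p70S6K peptide at Km ATP for 1 h, room temperature, pH 7.4; test range 0.32–1000 nM final, detection with Eu-labelled antibody after EDTA quench.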

Row | Structure (SMILES) | IC50
1 | COc1cc(F)cc(F)c1-c1nccc(Nc2cc(N3CCC[C@H](O)C3)c(C#Cc3cnn(CC(F)F)c3)cn2)n1 [Example 219, (S)-1-(2-((2-(2,4-difluoro-6-methoxyphenyl)pyrimidin-4-yl)amino)-5-((1-(2,2-difluoroethyl)-1H-pyrazol-4-yl)ethynyl)pyridin-4-yl)piperidin-3-ol] | ≤ 0.01 µM
2 | COc1cccc(F)c1-c1nc(Nc2cc(N3CCC[C@H](O)C3)c(C#CC3CCOCC3)cn2)ccc1C(=O)O [Example 139, 2-(2-fluoro-6-methoxyphenyl)-6-((4-((S)-3-hydroxypiperidin-1-yl)-5-((tetrahydro-2H-pyran-4-yl)ethynyl)pyridin-2-yl)amino)nicotinic acid] | ≤ 0.01 µM
3 | COc1cc(F)cc(F)c1-c1nccc(Nc2cc(N3CC[C@@H](C)[C@H](N)C3)c(-c3cnn(C(F)F)c3)cn2)n1 [Example 211, N-(4-((3S,4R)-3-amino-4-methylpiperidin-1-yl)-5-(1-(difluoromethyl)-1H-pyrazol-4-yl)pyridin-2-yl)-2-(2,4-difluoro-6-methoxyphenyl)pyrimidin-4-amine hydrochloride] | ≤ 0.01 µM
4 | COc1cccc(F)c1-c1nc(Nc2cc(N3CCC[C@H](N)C3)c(-c3cnn(C4CCOCC4)c3)cn2)ccc1C(N)=O [Example 129, 6-((4-((S)-3-aminopiperidin-1-yl)-5-(1-(tetrahydro-2H-pyran-4-yl)-1H-pyrazol-4-yl)pyridin-2-yl)amino)-2-(2-fluoro-6-methoxyphenyl)nicotinamide hydrochloride] | ≤ 0.01 µM
5 | COc1cccc(F)c1-c1nccc(Nc2cc(N3CCC[C@H](N)C3)c(-c3cnn(CC(=O)N(C)C)c3)cn2)n1 [Example 132, (S)-2-(4-(4-(3-aminopiperidin-1-yl)-6-((2-(2-fluoro-6-methoxyphenyl)pyrimidin-4-yl)amino)pyridin-3-yl)-1H-pyrazol-1-yl)-N,N-dimethylacetamide hydrochloride] | ≤ 0.01 µM
6 | COc1cccc(F)c1-c1nccc(Nc2cc(N3CCC[C@H](N)C3)c(-c3cnn(CC(F)(F)F)c3)nn2)n1 [Example 175, (S)-5-(3-aminopiperidin-1-yl)-N-(2-(2-fluoro-6-methoxyphenyl)pyrimidin-4-yl)-6-(1-(2,2,2-trifluoroethyl)-1H-pyrazol-4-yl)pyridazin-3-amine hydrochloride] | ≤ 0.01 µM
7 | COc1cc(F)cc(F)c1-c1nc(Nc2cc(N3CCC[C@H](O)C3)c(-c3cnn(C(F)F)c3)cn2)ccc1N [Example 184, (3S)-1-(2-((5-amino-6-(2,4-difluoro-6-methoxyphenyl)pyridin-2-yl)amino)-5-(1-(difluoromethyl)-1H-pyrazol-4-yl)pyridin-4-yl)piperidin-3-ol] | ≤ 0.01 µM
8 | COc1cccc(F)c1-c1nccc(Nc2cc(N3CC[C@@H](F)[C@H](N)C3)c(-c3cnn(C(F)F)c3)cn2)n1 [Example 208, N-(4-((3R,4R)-3-amino-4-fluoropiperidin-1-yl)-5-(1-(difluoromethyl)-1H-pyrazol-4-yl)pyridin-2-yl)-2-(2-fluoro-6-methoxyphenyl)pyrimidin-4-amine hydrochloride] | ≤ 0.01 µM
9 | COc1cccc(F)c1-c1nc(Nc2cc(N3CCC[C@H](N)C3)c(-c3cnn(C(F)F)c3)cn2)ccc1C#N [Example 301, 6-((4-((S)-3-aminopiperidin-1-yl)-5-(1-(difluoromethyl)-1H-pyrazol-4-yl)pyridin-2-yl)amino)-2-(2-fluoro-6-methoxyphenyl)nicotinonitrile hydrochloride] | ≤ 0.01 µM
10 | COc1cccc(F)c1-c1nc(Nc2cc(N3CCC[C@H](N)C3)c(-c3cnn(C(F)F)c3)cn2)ccc1N [Example 151, N^2-(4-((S)-3-aminopiperidin-1-yl)-5-(1-(difluoromethyl)-1H-pyrazol-4-yl)pyridin-2-yl)-6-(2-fluoro-6-methoxyphenyl)pyridin-2,5-diamine hydrochloride] | ≤ 0.01 µM
11 | COc1cccc(F)c1-c1nccc(Nc2cc(N3CCC[C@H](N)C3)c(-c3cnn(CC(C)(C)OC)c3)cn2)n1 [Example 229, (S)-N-(4-(3-aminopiperidin-1-yl)-5-(1-(2-methoxy-2-methylpropyl)-1H-pyrazol-4-yl)pyridin-2-yl)-2-(2-fluoro-6-methoxyphenyl)pyrimidin-4-amine] | ≤ 0.01 µM
12 | COc1cccc(F)c1-c1nccc(Nc2cc(N3CCC[C@H](N)C3)c(-c3cnn(CC4CNC4)c3)cn2)n1 [Example 237, (S)-N-(4-(3-aminopiperidin-1-yl)-5-(1-(azetidin-3-ylmethyl)-1H-pyrazol-4-yl)pyridin-2-yl)-2-(2-fluoro-6-methoxyphenyl)pyrimidin-4-amine hydrochloride] | ≤ 0.01 µM

Results, then the compound that gave them:

Row | IC50 | Structure (SMILES)
13 | ≤ 0.01 µM | COc1cccc(F)c1-c1nccc(Nc2cc(N3CC[C@@H](F)[C@H](O)C3)c(-c3cnn(C4CCOCC4)c3)cn2)n1 [Example 94, (3R,4R)-4-fluoro-1-(2-((2-(2-fluoro-6-methoxyphenyl)pyrimidin-4-yl)amino)-5-(1-(tetrahydro-2H-pyran-4-yl)-1H-pyrazol-4-yl)pyridin-4-yl)piperidin-3-ol]
14 | ≤ 0.01 µM | COc1cccc(F)c1-c1nc(Nc2cc(N3CC[C@@H](C)[C@H](N)C3)c(-c3cnn(C(F)F)c3)cn2)ccc1C#N [Example 337, 6-((4-((3S,4R)-3-amino-4-methylpiperidin-1-yl)-5-(1-(difluoromethyl)-1H-pyrazol-4-yl)pyridin-2-yl)amino)-2-(2-fluoro-6-methoxyphenyl)-nicotinonitrile hydrochloride]
15 | ≤ 0.01 µM | CCn1cc(-c2cnc(Nc3ccc(C#N)c(-c4c(F)cccc4OC)n3)cc2N2CCC[C@H](N)C2)cn1 [Example 327, 6-((4-((S)-3-aminopiperidin-1-yl)-5-(1-ethyl-1H-pyrazol-4-yl)pyridin-2-yl)amino)-2-(2-fluoro-6-methoxyphenyl)nicotinonitrile hydrochloride]
16 | 0.01 to 0.05 µM | N[C@H]1CCCN(c2cc(Nc3cccc(N4CCOC4=O)n3)ncc2-c2cnn(C3CCOCC3)c2)C1 [Example 127, (S)-3-(6-((4-(3-aminopiperidin-1-yl)-5-(1-(tetrahydro-2H-pyran-4-yl)-1H-pyrazol-4-yl)pyridin-2-yl)amino)pyridin-2-yl)oxazolidin-2-one hydrochloride]
17 | 0.01 to 0.05 µM | COc1cccc(F)c1-c1nccc(Nc2cc(N3CC[C@@H](NC(C)=O)C3)c(-c3cnn(C4CCOCC4)c3)cn2)n1 [Example 126, (R)-N-(1-(2-((2-(2-fluoro-6-methoxyphenyl)pyrimidin-4-yl)amino)-5-(1-(tetrahydro-2H-pyran-4-yl)-1H-pyrazol-4-yl)pyridin-4-yl)pyrrolidin-3-yl)acetamide]
18 | ≤ 0.01 µM | COc1cccc(F)c1-c1nc(Nc2cc(N3CCC[C@H](N)C3)c(-c3cnn(CC(F)(F)F)c3)cn2)ccc1F [Example 100, 4-((S)-3-aminopiperidin-1-yl)-N-(5-fluoro-6-(2-fluoro-6-methoxyphenyl)pyridin-2-yl)-5-(1-(2,2,2-trifluoroethyl)-1H-pyrazol-4-yl)pyridin-2-amine hydrochloride]
19 | ≤ 0.01 µM | COc1cccc(F)c1-c1nccc(Nc2cc(N3CC[C@@H](N)[C@H](C)C3)c(-c3cnn(C(F)F)c3)cn2)n1 [Example 268, N-(4-((3R,4R)-4-amino-3-methylpiperidin-1-yl)-5-(1-(difluoromethyl)-1H-pyrazol-4-yl)pyridin-2-yl)-2-(2-fluoro-6-methoxyphenyl)pyrimidin-4-amine hydrochloride]
20 | ≤ 0.01 µM | COc1cccc(F)c1-c1nccc(Nc2cc(N3CCC[C@H](N)C3)c(-c3ccc(C4CCOCC4)nc3)cn2)n1 [Example 82, (S)-4-(3-aminopiperidin-1-yl)-N-(2-(2-fluoro-6-methoxyphenyl)pyrimidin-4-yl)-6′-(tetrahydro-2H-pyran-4-yl)-[3,3′-bipyridin]-6-amine hydrochloride]
21 | 0.05 to 0.1 µM | COc1cccc(F)c1-c1nccc(Nc2cc(N3CCC[C@H](O)C3)c(-c3ccc(C(F)(F)F)nc3)cn2)n1 [Example 57, (S)-1-(6-((2-(2-fluoro-6-methoxyphenyl)pyrimidin-4-yl)amino)-6′-(trifluoromethyl)-[3,3′-bipyridin]-4-yl)piperidin-3-ol]
22 | 0.01 to 0.05 µM | COc1cccc(F)c1-c1nccc(Nc2cc(N3CCC[C@H](O)C3)c(-c3cccnc3)cn2)n1 [Example 42, (S)-1-(6-((2-(2-fluoro-6-methoxyphenyl)pyrimidin-4-yl)amino)-[3,3′-bipyridin]-4-yl)piperidin-3-ol]
23 | ≤ 0.01 µM | COc1cccc(F)c1-c1nc(Nc2cc(N3CCC[C@H](N)C3)c(C#CC3CCOCC3)cn2)ccc1[N+](=O)[O-] [Example 155, 4-((S)-3-aminopiperidin-1-yl)-N-(6-(2-fluoro-6-methoxyphenyl)-5-nitropyridin-2-yl)-5-((tetrahydro-2H-pyran-4-yl)ethynyl)pyridin-2-amine hydrochloride]
24 | ≤ 0.01 µM | COc1cc(F)cc(F)c1-c1nccc(Nc2cc(N3CC[C@@H](F)[C@H](N)C3)c(-c3cnn(C(C)C)c3)cn2)n1 [Example 339, N-(4-((3R,4R)-3-amino-4-fluoropiperidin-1-yl)-5-(1-isopropyl-1H-pyrazol-4-yl)pyridin-2-yl)-2-(2,4-difluoro-6-methoxyphenyl)pyrimidin-4-amine hydrochloride]
25 | ≤ 0.01 µM | COc1cccc(F)c1-c1nc(Nc2cc(N3CCC[C@H](O)C3)c(-c3cnn(CC(F)(F)F)c3)cn2)ccc1C(N)=O [Example 143, 2-(2-fluoro-6-methoxyphenyl)-6-((4-((S)-3-hydroxypiperidin-1-yl)-5-(1-(2,2,2-trifluoroethyl)-1H-pyrazol-4-yl)pyridin-2-yl)amino)nicotinamide]
26 | 0.05 to 0.1 µM | N[C@H]1CCCN(c2cc(Nc3cccc(N4CCOC4=O)n3)ncc2-c2ccc(N3CCOCC3)nc2)C1 [Example 138, (S)-3-(6-((4-(3-aminopiperidin-1-yl)-6′-morpholino-[3,3′-bipyridin]-6-yl)amino)pyridin-2-yl)oxazolidin-2-one hydrochloride]
